Measured values taken from patent publication US8981131B2, “Tricyclic compounds for the treatment of inflammatory disorders” (Piramal Enterprises Limited, priority 2007, dated 2015).
Structures can show the parent of a compound that is named as a salt.

How the values were obtained:
Conditions in all cases: LPS (1 μg/mL)-stimulated hPBMCs, 5 hours, ELISA
IL-6 = IL-6 released by LPS-stimulated hPBMCs; type: cell-based, Human
Procedure: (§1) TNF-α production by lipopolysaccharides (LPS) in hPBMCs was measured according to the method described by Jansky, L. et al (Physiol. Res. 52: 593-598, 2003), incorporated herein by reference. Blood was collected from healthy donors into Potassium EDTA vacutainer tubes (BD vacutainer). The PBMCs were isolated using gradient centrifugation in Histopaque-1077 solution (Sigma). Isolated PBMCs were suspended in RPMI 1640 culture medium (Gibco BRL, Pasley, UK) containing 10% fetal bovine serum (FBS) (Hyclone, Utah, USA), 100 U/ml penicillin (Sigma Chemical Co. St Louis, Mo.) and 100 μg/ml streptomycin (Sigma Chemical Co. St Louis, Mo.). The cell concentration was adjusted to 1×10^6 cells/mL. The viability as determined by trypan blue dye exclusion was uniformly ≧98%. The cell suspension (100 μL) was added to the wells of a 96-well culture plate. Following cell plating, 79 μL of the culture medium and 1 μL of eight different concentrations of the test compounds (final concentration 0.03, 0.1, 0.3, 1, 3, 10, 30, 100 μM) dissolved in DMSO (dimethylsulfoxide, Sigma, Mo., USA) were added to the cells. The final concentration of DMSO was adjusted to 0.5%. The vehicle (0.5% DMSO) was used as control. Rolipram (30, 100 μM) was used as a standard compound. The plates were incubated for 30 min at 37° C. in an atmosphere of 5% CO2. Finally, 20 μL (10 μg/mL) per well of LPS, (Escherchia coli 0127:B8, Sigma Chemical Co., St. Louis, Mo.) was added, for a final concentration of 1 μg/mL. The plates were incubated at 37° C. for 5 hours in an atmosphere of 5% CO2. To assess the cytotoxic effect of the test compounds, the cellular viability test was performed using MTS (3-(4,5-dimethylthiazol-2-yl)-5-(3-carboxymethoxyphenyl)-2-(4-sulfonyl)-2H-tetrazolium) reagent after 5 hours of incubation. Supernatants were harvested and assayed for TNF-α, IL-1β, IL-6 and IL-8 by ELISA as described by the manufacturer. (OptiEIA ELISA sets, BD Biosciences, Pharmingen). The 50% inhibitory concentration (IC50) values were calculated by a nonlinear regression method using GraphPad software (Prism 3.03)

TNF-α = TNF-α inhibition in LPS-stimulated human peripheral blood mononuclear cells (primary screening); type: cell-based
Procedure: as §1

IL-8 = IL-8 released by LPS-stimulated hPBMCs; type: cell-based, Human
Procedure: as §1

IL-1β = IL-1β released by LPS-stimulated hPBMCs; type: cell-based, Human
Procedure: as §1

Structure (SMILES)	IC50 (TNF-α; Homo sapiens, PBMC)	also measured
CC1=C2[C@H]3OC(=O)C(CNCC4C(=O)O[C@H]5C6=C(C)CCC[C@]6(C)CCC45O)C3(O)CC[C@]2(C)CCC1 (stereo partly drawn) [Compound of example 55, (5aS,9bR)-3a-Hydroxy-3-((((5aR,9bS)-3a-hydroxy-5a,9-dimethyl-2-oxo-2,3,3a,4,5,5a,6,7,8,9b-decahydronaphtho[1,2-b]furan-3-yl)methylamino)methyl)-5a,9-dimethyl-3,3a,4,5,5a,6,7,8-octahydronaphtho[1,2-b]furan-2(9bH)-one hydrochloride]	1200 nM	IC50 (IL-6; Homo sapiens): 3100 nM; IC50 (IL-8; Homo sapiens): 29 µM; IC50 (IL-1β; Homo sapiens): 310 nM
COC(=O)CNCC1C(=O)O[C@H]2C3=C(C)CCC[C@]3(C)CCC12O (stereo partly drawn) [Compound of example 58, Methyl 2-(((5aR,9bS)-3a-hydroxy-5a,9-dimethyl-2-oxo-2,3,3a,4,5,5a,6,7,8,9b-decahydronaphtho[1,2-b]furan-3-yl)methylamino)acetate]	2000 nM	–
CC1=C2[C@@H]3OC(=O)C(CN4CCN(Cc5ccccc5)CC4)C3(O)CC[C@@]2(C)CCC1 (stereo partly drawn) [Compound of example 27, (5aR,9bS)-3-((4-Benzylpiperazin-1-yl)methyl)-3a-hydroxy-5a,9-dimethyl-3,3a,4,5,5a,6,7,8-octahydronaphtho[1,2-b]furan-2(9bH)-one]	300 nM	–
CC(=O)OCC1(O)C(=O)O[C@H]2C3=C(C)CCC[C@]3(C)CCC21O (stereo partly drawn) [Compound of example 3, ((5aR,9bS)-3,3a-Dihydroxy-5a,9-dimethyl-2-oxo-2,3,3a,4,5,5a,6,7,8,9b-decahydronaphtho[1,2-b]furan-3-yl)methyl acetate]	500 nM	–
CC1=C2[C@@H]3OC(=O)C(CN4CCN(CC5C(=O)O[C@H]6C7=C(C)CCC[C@]7(C)CCC56O)CC4)C3(O)CC[C@]2(C)CCC1 (stereo partly drawn) [Compound of example 54, (5aS,9bS)-3a-Hydroxy-3-((4-(((5aR,9bS)-3a-hydroxy-5a,9-dimethyl-2-oxo-2,3,3a,4,5,5a,6,7,8,9b-decahydronaphtho[1,2-b]furan-3-yl)methyl)piperazin-1-yl)methyl)-5a,9-dimethyl-3,3a,4,5,5a,6,7,8-octahydronaphtho[1,2-b]furan-2(9bH)-one]	600 nM	IC50 (IL-6; Homo sapiens): 2100 nM; IC50 (IL-8; Homo sapiens): 11.7 µM; IC50 (IL-1β; Homo sapiens): 200 nM
CC1=C2[C@@H]3OC(=O)C(CN4CCN(Cc5c(C)cccc5C)CC4)C3(O)CC[C@@]2(C)CCC1 (stereo partly drawn) [Compound of example 30, (5aR,9bS)-3-((4-(2,6-dimethylbenzyl)piperazin-1-yl)methyl)-3a-hydroxy-5a,9-dimethyl-3,3a,4,5,5a,6,7,8-octahydronaphtho[1,2-b]furan-2(9bH)-one]	800 nM	–
CC1=C2[C@@H]3OC(=O)C(CN(C)CC(O)c4ccc(O)cc4)C3(O)CC[C@@]2(C)CCC1 (stereo partly drawn) [Compound of example 60, (5aR,9bS)-3a-Hydroxy-3-(((2-hydroxy-2-(4-hydroxyphenyl)ethyl)(methyl)amino)methyl)-5a,9-dimethyl-3,3a,4,5,5a,6,7,8-octahydronaphtho[1,2-b]furan-2(9bH)-one]	200 nM	–
CC1=C2[C@@H]3OC(=O)C(CN4CC[S+]([O-])CC4)C3(O)CC[C@@]2(C)CCC1 (stereo partly drawn) [Compound of example 25, (5aR,9bS)-3a-Hydroxy-5a,9-dimethyl-3-(thiomorpholino-1-oxide-methyl)-3,3a,4,5,5a,6,7,8-octahydronaphtho[1,2-b]furan-2(9bH)-one]	–	IC50 (TNF-α): 3300 nM
CCOC(=O)N1CCN(CC2C(=O)O[C@H]3C4=C(C)CCC[C@]4(C)CCC23O)CC1 (stereo partly drawn) [Compound of example 48, Ethyl 4-(((5aR,9bS)-3a-hydroxy-5a,9-dimethyl-2-oxo-2,3,3a,4,5,5a,6,7,8,9b-decahydronaphtho[1,2-b]furan-3-yl)methyl)piperazine-1-carboxylate hydrochloride]	700 nM	–
CC12CCCC3(C)OC13C1OC(=O)C(CN3CCCCC3)C1(O)CC2 (centres unmarked) [Compound of example 18, 13-(Piperidin-1-yl)-4,5-epoxy-7-hydroxyeudesm-6,12-olide]	–	IC50 (IL-6): 900 nM; IC50 (TNF-α): 400 nM; IC50 (IL-8): 9.2 µM; IC50 (IL-1β): 200 nM
COc1cc(CN2CCN(CC3C(=O)O[C@H]4C5=C(C)CCC[C@]5(C)CCC34O)CC2)c(CO)c(OC)c1 (stereo partly drawn) [Compound of example 38, (5aR,9bS)-3a-hydroxy-3-((4-(2-(hydroxymethyl)-3,5-dimethoxybenzyl)piperazin-1-yl)methyl)-5a,9-dimethyl-3,3a,4,5,5a,6,7,8-octahydronaphtho[1,2-b]furan-2(9bH)-one]	800 nM	–
CC1=C2[C@@H]3OC(=O)C(CN4CCCCC4)C3(O)CC[C@@]2(C)CCC1 (stereo partly drawn) [Compound of example 17, (5aR,9bS)-3a-Hydroxy-5a,9-dimethyl-3-(piperidin-1-ylmethyl)-3,3a,4,5,5a,6,7,8-octahydronaphtho[1,2-b]furan-2(9bH)-one]	700 nM	IC50 (IL-6; Homo sapiens): 3000 nM; IC50 (IL-8; Homo sapiens): 27.6 µM; IC50 (IL-1β; Homo sapiens): 260 nM
CC1=C2[C@@H]3OC(=O)C(CN4CCN(Cc5c(F)cccc5C(F)(F)F)CC4)C3(O)CC[C@@]2(C)CCC1 (stereo partly drawn) [Compound of example 36, (5aR,9bS)-3-((4-(2-fluoro-6-(trifluoromethyl)benzyl)piperazin-1-yl)methyl)-3a-hydroxy-5a,9-dimethyl-3,3a,4,5,5a,6,7,8-octahydronaphtho[1,2-b]furan-2(9bH)-one]	1100 nM	–
CC1=C2[C@@H]3OC(=O)C(CNC4C(O)C(O)C(CO)O[C@H]4O)C3(O)CC[C@@]2(C)CCC1 (stereo partly drawn) [Compound of example 59, (5aR,9bS)-3a-Hydroxy-5a,9-dimethyl-3-(((2R)-2,4,5-trihydroxy-6-(hydroxymethyl)tetrahydro-2H-pyran-3-ylamino)methyl)-3,3a,4,5,5a,6,7,8-octahydronaphtho[1,2-b]furan-2(9bH)-one]	400 nM	–
CC1=C2[C@@H]3OC(=O)C(CN4CCN(Cc5ccccc5F)CC4)C3(O)CC[C@@]2(C)CCC1 (stereo partly drawn) [Compound of example 33, (5aR,9bS)-3-((4-(2-fluorobenzyl)piperazin-1-yl)methyl)-3a-hydroxy-5a,9-dimethyl-3,3a,4,5,5a,6,7,8-octahydronaphtho[1,2-b]furan-2(9bH)-one]	300 nM	–
CC1=C2[C@@H]3OC(=O)C(CN4CCOCC4)C3(O)CC[C@@]2(C)CCC1 (stereo partly drawn) [Compound of example 22, (5aR,9bS)-3a-Hydroxy-5a,9-dimethyl-3-(morpholinomethyl)-3,3a,4,5,5a,6,7,8-octahydronaphtho[1,2-b]furan-2(9bH)-one]	700 nM	–
CC1=C2[C@@H]3OC(=O)C(CN4CCN(c5ccccn5)CC4)C3(O)CC[C@@]2(C)CCC1 (stereo partly drawn) [Compound of example 53, (5aR,9bS)-3a-Hydroxy-5a,9-dimethyl-3-((4-(pyridin-2-yl)piperazin-1-yl)methyl)-3,3a,4,5,5a,6,7,8-octahydronaphtho[1,2-b]furan-2(9bH)-one]	800 nM	–
